Results taken from PMC8577999 (Slas Discovery, 2021).

Experiments:
Type in all cases: cell-based, SARS-CoV-2
[1] = test system: SARS2-S SA variant (B.1.351); assay: microbe, parasite or virus in culture; details: Severe acute respiratory syndrome coronavirus 2, read-out: SA IC50
[2] = test system: SARS2-S UK variant (B.1.1.7); assay: microbe, parasite or virus in culture; details: Severe acute respiratory syndrome coronavirus 2, read-out: UK IC50
SARS2-S N501Y-D614G = details: read-out: N501Y-D614G IC50
SARS2-S D614G = details: read-out: D614G IC50

## CCCC[C@@H](C=O)NC(=O)[C@H](CC(C)C)NC(=O)OCc1ccccc1 [SR-914, calpeptin]
[1]
  IC50: 0.00658 µM
[2]
  IC50: 0.0347 µM
SARS2-S N501Y-D614G
  IC50: 0.00898 µM
SARS2-S D614G
  IC50: 0.0115 µM
